Assay type in all cases: physicochemical
The nature of data set [1]: Evaluation of molar absorption coefficient (UV-vis). Particulars: for Molar absorption coefficient: deionized water, UV-vis spectrometer; for absorption coefficient relative to HNB: times higher than that of HNB. The protocol: HNB and 9 types of candidate substances were dissolved in deionized water to prepare 100 μg/ml of a stock and then diluted with deionized water to prepare samples of 50, 25 and 12.5 μg/ml. Next, an absorption spectrum was obtained using an analyzer UV-vis spectrometer (Agilent 8453), and then absorption coefficient values at a concentration of […] were measured and shown in Table 1 below.

Another data set can be described thus: Solubility test in water. Particulars: 10 mg dissolved in 1 ml of deionized water. Here is the method:
The solubility in water was measured to confirm the solubility of the synthesized candidate compounds. Specifically, 10 mg of hydroxynaphthalene blue (HNB), which is a compound known to be developed by magnesium ions as a control, and 10 mg of each of the candidate compounds were dissolved in 1 ml of deionized water, and then the solubility was confirmed.
Various color developing dyes represented by Chemical Formula 1 above were dissolved in distilled water (D.W) and the solubility was tested to select a compound having high solubility. The selected compound was diluted at each concentration (100 uM, 50 uM, 25 uM, 12.5 uM, 6.25 uM, and 3.13 uM) and the reaction sensitivity with magnesium (magnesium concentration of 100 mM, 10 mM) by concentration was tested.

The nature of data set [2]: Evaluation of magnesium ion detection characteristics and pH stability (color development, 96 well plate). Particulars: sodium phosphate buffer pH 4, 7, 9, 11; specimen 120 μM. The protocol: 200 mM of a magnesium chloride solution was prepared by dissolving 0.9521 g of magnesium chloride in 50 ml of deionized water.
59.99 mg of sodium phosphate monobasic and 70.98 mg of sodium phosphate dibasic were dissolved in 50 ml of distilled water to prepare 10 mM of a sodium phosphate buffer solution, and then 28.85 ml of a sodium phosphate monobasic solution and 21.15 ml of a sodium phosphate dibasic solution were mixed to prepare a sodium phosphate buffer solution at pH 7. In a similar manner, the two solutions were mixed to prepare sodium phosphate buffer solutions having acidity of pH 4, pH 7, pH 9, and pH 11, respectively.
For determination of color development, the HNB and the candidate substance were prepared at concentrations of 240 μM and used for the test.
Hydroxynaphthalene blue (HNB) and 9 types of water-soluble candidate substances selected by the solubility test were diluted with distilled water to prepare specimens at concentrations of 240 μM, respectively.
It was confirmed whether the candidate substances according to the present invention reacted with magnesium ions to be color-developed (discolored). In addition, pH stability was confirmed according to whether the candidate substances were specifically color-developed by reacting only with magnesium ions regardless of a pH change.
The color development of the control (HNB) and […] of candidate substances was confirmed under conditions of blank, a MgCl2 solution, pH 4, pH 7, pH 9, and pH 11 using a 96 well plate (12×6 holes). Specifically, 100 μl of deionized water (blank) was added in a first row of the plate, 100 μl of the MgCl2 solution was added in a second row thereof, and 100 μl of each of solutions at pH 4, pH 7, pH 9, and pH 11 was added in third to sixth rows thereof using 10 mM of the sodium phosphate buffer solution prepared in step a) above. In columns of the plate, 100 μl of specimens prepared at a concentration of 240 μM were added to 6 rows, respectively, and a total of 36 specimens were screened. […]

Data set [3] can be described thus: Evaluation of magnesium ion sensitivity at concentration of less than 10 mM. Here is the method:
Magnesium chloride was dissolved in deionized water and diluted to 8, 10, 12, 14 and 16 mM, respectively, to prepare specimens. Next, as the dye compounds, the HNB and the compound of Chemical Formula 2 were prepared at a concentration of 240 μM, but the compounds of Chemical Formulas 3 and 4 were prepared to be diluted at a concentration of 120 μM by 50% because the molar absorption coefficient of the compounds was two times higher than that of the control (HNB).
In each row of a 96-well plate, […] of the dye compound was filled, and in each column, […] of a diluted magnesium chloride solution was filled, and then the color changes were observed and absorbance was measured. The final concentrations of magnesium chloride in the 96-well plate were 0, 4, 5, 6, 7, and 8 mM, and the final concentrations of HNB and Chemical Formula 2 were 120 μM, respectively, and the final concentrations of Chemical Formulas 3 and 4 were 60 μM, respectively.

Entries after “also recorded” stand apart in the source; their conditions may differ.

Regarding `CC1=NN(c2ccccc2)C(O)C1N=Nc1cc([N+](=O)[O-])cc(S(=O)(=O)O)c1O` (centres unmarked) [Chemical Formula 5], the Molar absorption coefficient in data set [1] is recorded as 33,579. For “hydroxynaphthalene blue [HNB, reference compound]”, the Molar absorption coefficient in data set [1] is reported as 13,000. Besides, in “Solubility test in water”, the solubility in water result is reported as “dissolved in water”.

For `O=[N+]([O-])c1cc(N=Nc2c(S(=O)(=O)O)cc3cc(Nc4ccccc4)ccc3c2O)c(O)c([N+](=O)[O-])c1` [Chemical Formula 4], the “pH stability (color development with pH change in the absence of magnesium ions)” value in data set [2] is recorded as “excellent; also recorded: without being influenced by the pH change”. In data set [1], the Molar absorption coefficient is given as 31,000 and the “absorption coefficient relative to HNB” value is listed as 2.38 times.

Take `Nc1ccc2c(O)c(N=Nc3ccc([N+](=O)[O-])cc3O)c(S(=O)(=O)O)cc2c1` [Chemical Formula 3]: the “absorption spectrum position after shift by magnesium ions” value in data set [3] (with magnesium ions) is recorded as 640 nm. In addition, the “absorption spectrum position before shift by magnesium ions” value in data set [3] (without magnesium ions) stood at 500 nm. For the same compound, the “pH stability (color development with pH change in the absence of magnesium ions)” value in data set [2] is “excellent; also recorded: without being influenced by the pH change”. Moreover, in data set [1], the Molar absorption coefficient is 44,000 and the “absorption coefficient relative to HNB” value was 3.38 times. In the case of `O=[N+]([O-])c1cc(N=Nc2c(O)ccc3ccccc23)c(O)c([N+](=O)[O-])c1` [Chemical Formula 8], in data set [1], the Molar absorption coefficient was 5,117. `O=[N+]([O-])c1cc(S(=O)(=O)O)cc(N=Nc2cc(S(=O)(=O)[O-])c3ccccc3c2O)c1O.[Na+]` [Chemical Formula 9]: the Molar absorption coefficient in data set [1] is on record as 23,000. For the compound `O=[N+]([O-])c1ccc(O)c(N=Nc2cc(S(=O)(=O)O)c3ccccc3c2O)c1` [Chemical Formula 2], the “pH stability (color development with pH change in the absence of magnesium ions)” value in data set [2] is “developed to a color clearly different from that in the presence of magnesium ions under neutral to basic conditions”. In data set [1], the Molar absorption coefficient is listed as 12,000.

Regarding `O=[N+]([O-])c1cc(N=Nc2c(O)cccc2O)c(O)c(S(=O)(=O)O)c1` [Chemical Formula 6], the Molar absorption coefficient in data set [1] is recorded as 18,000.

Regarding `O=[N+]([O-])c1cc(N=Nc2c(S(=O)(=O)O)cc3cc(Nc4ccccc4)ccc3c2O)c(O)c(S(=O)(=O)O)c1` [Chemical Formula 7], in data set [1], the Molar absorption coefficient is 25,000.
